How the values were obtained:
[1] = test system: cultured cortical neurones; experiment: Glutamate toxicity in cultured cortical neurones; assay type: cell-based; conditions: Cortical neurone, read-out: Glut Tox IC50
Protocol: (§1) Effect of MRZ 2/705 on [^3H]-(+)-MK-801 binding, NMDA-induced currents in patch clamp experiments, and glutamate toxicity in cultured cortical neurones. […] IC50s (±SEM) in patch clamp and glutamate toxicity experiments were determined from data from at least 3 concentrations producing between 15 and 85% inhibition and at least 5 cells/well per concentration.

[2] = test system: rotarod failure (Rot.); experiment: Rotarod failure (for therapeutic index); assay type: in vivo; conditions: therapeutic index: ED50 for rotarod failure divided by ED50 for MES-induced convulsions
Protocol: (§2) Effect of MRZ 2/705 on convulsions induced by maximal electroshock (MES). […] The therapeutic index (TI) was also calculated as the ED50 for inhibition of traction reflex (Tract.) impairment or rotarod failure (Rot.) divided by the ED50 for MES-induced seizure-induced convulsions.

[3] = test system: convulsions induced by maximal electroshock (MES); experiment: Convulsions induced by maximal electroshock (MES); assay type: in vivo; conditions: ip; 95% confidence limits in the next column
Protocol: as §2

[4] = Adverse effects in kindled rats (sedation, ataxia, rotarod test); assay type: in vivo, Female Wistar rats
Protocol: The substance MRZ 2/705 was dissolved in distilled water and administered i.p. Thereby applicated volume was 3 ml/kg body weight. dosages used in the experiments were 5, 10, and 20 mg/kg.
Animals were allowed to adapt to the laboratory environment, then body temperature was measured and animals were put into open cages for constant observation. 15 and 30 minutes following drug or vehicle administration behavioral alterations and body temperature were determined. Adverse effects were scored during observation in open cages and in an open field. In addition, rats were subjected to the rotarod test (polypropylene, foam-coated rod, 5cm in diameter, 8rpm). Animals were considered to have failed this test, when they fell from the rod in each of three consecutive 1-min. attempts.

[5] = test system: traction reflex (Tract.) impairment; experiment: Traction reflex impairment (for therapeutic index); assay type: in vivo; conditions: therapeutic index: ED50 for traction reflex impairment divided by ED50 for MES-induced convulsions
Protocol: as §2

[6] = target: [^3H]-(+)-MK-801 binding; experiment: [3H]-(+)-MK-801 binding; conditions: read-out: MK-801 Ki; means of 3-5 experiments; Cheng-Prusoff, Kd for MK-801 of […]
Protocol: as §1

[7] = Minimal lethality i.p.
[8] = test system: amygdala kindled rats; experiment: Amygdala kindling model in fully kindled rats; assay type: in vivo, Female Wistar rats
Protocol: The substance MRZ 2/705 was tested in the amygdala kindling model in rats. In this model chronically implanted animals with stimulation and recording electrodes in the amygdala were rendered more susceptible to seizures by repeated initially subconvulsive electrical stimulation (Goddard et al., 1969, Sato el. al, 1990). Once enhanced sensitivity, characterized by generalized motor seizures, has developed, the animal is said to be fully kindled. For substance screening procedures we determine the individual threshold current that induces afterdischarges at the stimulation site.
Female Wistar rats were purchased at a body weight of 200-220g (Harlan Windelmann Versuchstierzucht, Borchen, Germany) and were then kept under controlled environmental conditions (24-25°C, 50-60% humidity, 12h light / dark cycle) with free access to standard laboratory chow (Altromin 1324 standard diet) and tap water. All experiments were performed within the same day time in the morning to minimize possible effects of circadian variation. […] These animals were previously kindled and used to test other compounds. The period between the previous and current studies was long enough (at least one month) so that it was ample time for a complete washout from the previously tested drug.
For implantation of kindling electrodes, rats were anaesthetized with chloral hydrate (360 mg/kg, i/p.), the skull surface was exposed, and a bipolar electrode was implanted into the right hemisphere aimed at the basolateral amygdala using the following sterotaxic coordinates according to the atlas of Paximos and Watson (1986): 2.2 mm caudal, 4.8 mm lateral, 8.5 mm ventral (all respective to bregma). The electrodes consisted of two twisted Teflon-coated stainless steel wires (250 µm diameter) separated by 0.5 mm at the tip. A screw, which served as grounding electrode, was positioned over the left parietal cortex. Bipolar and ground electrodes were connected to plugs, and the electrode assembly and anchor screws were held in place with dental carylic cement applied to the exposed skull surface. After surgery, the rats were treated with antibiotics for 1 week to prevent infection.
Following a post-operative recovery period of two weeks, constant current stimulations (500µA, 1 msec, monophasic square-wave pulses, 50 Hz for 1 s) were delivered to the amygdala once daily (five times per week) until at least 10 sequential fully kindled stage-5 seizures were elicited. Seizure severity (SS) was scored according to Racine (1972): 1 immobility, eye closure, ear twitching, twitching of vibrissae, sniffing, facial clonus; 2 head nodding associated with more severe facial clonus; 3 clonus of one forelimb; 3.5 bilateral clonus without rearing; 4 bilateral clonus accompanied by rearing; 4.5 generalized clonic seizures without rearing and falling (e.g. because of direct loss of balance); 5 rearing and falling accompanied by generalized clonic seizures. In these fully kindled rats afterdischarge threshold (ADT) was determined by administering a series of stimulations at intervals of 1 min. increasing in steps of about 20% of the previously applied current. The afterdischarge threshold was defined as the lowest current intensity producing afterdischarge with a duration of at least 5 s.
In all experiments seizure duration and afterdischarge duration were recorded in addition to seizure severity and afterdischarge threshold. Seizure duration 1 (SD1) was the time period of limbic and/or motor seizures. Limbic seizure activity which sometimes occurred after termination of secondarily generalized seizures was not included in seizure duration. Seizure duration 2 (SD2) was the time period from stimulation until the end of postictal depression phase.
Afterdischarge duration 1 (ADD1) was defined as the period of high amplitude spiking (at least 1 Hz frequency and twice the prestimulation amplitude) in the electroencephalogram (EEG) of the BLA electrode, including the time of stimulation. […]

[9] = test system: NMDA-induced currents; experiment: NMDA-induced currents in patch clamp experiments; assay type: cell-based; conditions: at least 3 concentrations, at least 5 cells per concentration
Protocol: as §1

[10] = 20 mg/kg i.p., in a significant manner

## CC1(C)CC(C)(C)CC(C)(N2CCCC2)C1.Cl [MRZ 2/705, N-(1,3,3,5,5-Pentamethylcyclohexyl) pyrrolidine hydrochloride]
[1]
  IC50: 12.3 µM
[2]
  TI Rot.: 5.4
[3]
  ED50: 9.55 mg/kg
[4]; 5, 10, 20 mg/kg i.p., 8 rpm, three consecutive 1-min attempts
  rotarod test: no failure to pass the rotarod test was observed
[4]; 10 and 20 mg/kg i.p.
  ataxia: Slight ataxia
[4]; all three dosages (5, 10, 20 mg/kg i.p.)
  sedation: minor signs of sedation
[5]
  TI Tract: 3.9
[6]
  Ki: 7.14 µM
[7]
  Min I.ct-hality: >50 mg/kg
[8]; 5 mg/kg i.p.
  average increase in afterdischarge threshold above control threshold: 36%
[8]; 10 mg/kg i.p., significant
  average increase in afterdischarge threshold above control threshold: 50%
[8]; [10]
  duration of afterdischarges: reduced
  duration of motor seizures: reduced
  seizure severity: reduced
[8]; 20 mg/kg i.p., significant
  average increase in afterdischarge threshold above control threshold: 95%
[8]; lower dosages (5 and 10 mg/kg i.p.)
  seizure parameters (seizure severity, duration of motor seizures, duration of afterdischarges): remained unchanged or were only influenced slightly
[9]
  IC50: 25.4 µM
